This note sets out measurements from ChEMBL document CHEMBL1153330, “Biochemical basis for differences in metabolism-dependent genotoxicity by two diazinylpiperazine-based 5-HT2C receptor agonists” (Bioorg Med Chem Lett, 2009).

Where only a bound is given, the exact number is not on record here.

The nature of series [1]: Metabolic stability in aroclor 1254-induced rat liver S9 fraction at 1 uM in presence of NADPH. The class given is ADME, subcellular.
For series [2], the system named is Salmonella typhimurium. Nature of the series: Toxic mutagenic effect in Salmonella Typhimurium TA1537 assessed as increase in reverse mutants at 5 mg/plate segment after 72 hrs at 37 degC by reverse mutation assay relative to untreated control. The following applies: salmonella enterica subsp. enterica serovar typhimurium. It counts as toxicity, organism-based.

Series [3] deals with Salmonella typhimurium. Nature of the series: Toxic mutagenic effect in Salmonella Typhimurium TA100 assessed as increase in reverse mutants at 5 mg/plate segment after 72 hrs at 37 degC by reverse mutation assay relative to untreated control. The class given is toxicity, organism-based. The following applies: salmonella enterica subsp. enterica serovar typhimurium.
In series [4] the test system is Salmonella typhimurium. Description: Toxic mutagenic effect in Salmonella Typhimurium TA98 assessed as increase in reverse mutants at 5 mg/plate segment after 72 hrs at 37 degC by reverse mutation assay relative to untreated control. It counts as toxicity, organism-based. Particulars: salmonella enterica subsp. enterica serovar typhimurium.
The test system of series [5] is Salmonella typhimurium. Description: Toxic mutagenic effect in Salmonella Typhimurium TA98 assessed as increase in reverse mutants at 5 mg/plate segment after 72 hrs at 37 degC in presence of aroclor 1254-induced rat liver S9 fraction by reverse mutation assay relative to untreated control. The class given is toxicity, organism-based. The following applies: salmonella enterica subsp. enterica serovar typhimurium, s9, 72 h.

Series [6] can be described thus: Metabolic stability in human liver microsomes. The class given is ADME, Microsome.
A further series deals with T1, Cytochrome P450 1A2 (Homo sapiens, UniProt P05177).
T1 sequence (P05177 whole entry): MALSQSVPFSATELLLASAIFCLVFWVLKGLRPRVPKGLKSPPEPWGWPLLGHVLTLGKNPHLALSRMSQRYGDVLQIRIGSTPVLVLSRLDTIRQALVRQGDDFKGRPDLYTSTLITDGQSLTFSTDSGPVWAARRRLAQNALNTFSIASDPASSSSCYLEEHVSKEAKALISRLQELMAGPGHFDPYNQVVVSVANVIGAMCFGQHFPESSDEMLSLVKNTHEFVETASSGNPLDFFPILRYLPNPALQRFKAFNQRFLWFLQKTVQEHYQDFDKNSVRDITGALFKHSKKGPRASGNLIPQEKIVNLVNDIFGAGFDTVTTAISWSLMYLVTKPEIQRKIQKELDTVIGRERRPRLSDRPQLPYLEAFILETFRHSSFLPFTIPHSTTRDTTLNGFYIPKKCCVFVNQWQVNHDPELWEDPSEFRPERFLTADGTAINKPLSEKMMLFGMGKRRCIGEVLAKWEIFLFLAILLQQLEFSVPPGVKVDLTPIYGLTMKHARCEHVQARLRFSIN
Nature of the series: Inhibition of CYP1A2 in human liver microsomes. It counts as ADME, Microsome. Background: Liver microsomes are vesicles of endoplasmic reticulum, rich in cytochrome P450 enzymes.

Series [7] is described as follows: Metabolic stability in human liver microsomes in presence of CYP1A2 inhibitor furafylline. The class given is ADME, Microsome. Particulars: with furafylline (CYP1A2 inhibitor), concentration not stated.
Series [8] concerns Salmonella typhimurium. Nature of the series: Toxic mutagenic effect in Salmonella Typhimurium TA1535 assessed as increase in reverse mutants at 5 mg/plate segment after 72 hrs at 37 degC by reverse mutation assay relative to untreated control. It counts as toxicity, organism-based. The following applies: salmonella enterica subsp. enterica serovar typhimurium.
Series [9] deals with Salmonella typhimurium. Nature of the series: Toxic mutagenic effect in Salmonella Typhimurium TA1537 assessed as increase in reverse mutants at 5 mg/plate segment after 72 hrs at 37 degC in presence of aroclor 1254-induced rat liver S9 fraction by reverse mutation assay relative to untreated control. The class given is toxicity, organism-based. Particulars: salmonella enterica subsp. enterica serovar typhimurium, s9, 72 h.

Series [10] relates to Salmonella typhimurium. Description: Toxic mutagenic effect in Salmonella Typhimurium TA1535 assessed as increase in reverse mutants at 5 mg/plate segment after 72 hrs at 37 degC in presence of aroclor 1254-induced rat liver S9 fraction by reverse mutation assay relative to untreated control. The following applies: salmonella enterica subsp. enterica serovar typhimurium, s9, 72 h. The class given is toxicity, organism-based.

Series [11] is described as follows: Metabolic stability in human liver microsomes in presence of CYP3A4 inhibitor ketoconazole. Particulars: with ketoconazole (CYP3A4 inhibitor), concentration not stated. It counts as ADME, Microsome.
For the next series, the target named is Cytochrome P450 3A4 (Homo sapiens, UniProt P08684). Description: Inhibition of CYP3A4 in human liver microsomes. The class given is ADME, Microsome.
Sequence of Cytochrome P450 3A4 (P08684 whole entry): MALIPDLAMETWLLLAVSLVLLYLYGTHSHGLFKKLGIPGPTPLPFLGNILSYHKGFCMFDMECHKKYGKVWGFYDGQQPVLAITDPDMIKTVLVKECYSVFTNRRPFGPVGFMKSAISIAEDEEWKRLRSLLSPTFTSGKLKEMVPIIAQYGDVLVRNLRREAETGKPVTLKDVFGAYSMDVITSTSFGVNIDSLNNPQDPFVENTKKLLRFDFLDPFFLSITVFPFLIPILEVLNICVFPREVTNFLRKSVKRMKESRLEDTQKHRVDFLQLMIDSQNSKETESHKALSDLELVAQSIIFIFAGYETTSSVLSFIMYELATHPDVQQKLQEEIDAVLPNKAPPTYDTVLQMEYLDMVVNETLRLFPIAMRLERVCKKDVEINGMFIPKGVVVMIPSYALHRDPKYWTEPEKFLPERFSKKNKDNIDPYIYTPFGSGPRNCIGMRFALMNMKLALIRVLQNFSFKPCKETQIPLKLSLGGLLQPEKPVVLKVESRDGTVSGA
Series [12] concerns Salmonella typhimurium. Description: Toxic mutagenic effect in Salmonella Typhimurium TA1537 assessed as increase in reverse mutants at 0.63 mg/plate segment in presence of liver S9 fraction and NADPH by reverse mutation assay relative to untreated control. The following applies: salmonella enterica subsp. enterica serovar typhimurium. It counts as toxicity, organism-based.

In series [13] the test system is Salmonella typhimurium. Nature of the series: Toxic mutagenic effect in Salmonella Typhimurium TA100 assessed as increase in reverse mutants at 0.63 mg/plate segment in presence of liver S9 fraction and NADPH by reverse mutation assay relative to untreated control. It counts as toxicity, organism-based. Particulars: salmonella enterica subsp. enterica serovar typhimurium.

One may read the half-life as how long it takes for the measured level to halve. As usually defined, the IC50 is the point on the concentration scale where inhibition reaches its midpoint.

For the compound `C[C@H](Cc1cccc(F)c1)Oc1nc(N2CCNC[C@H]2C)ncc1F`, the half-life at 1 µM in [1] is 13 min. Besides, the Activity entry in the series with Salmonella typhimurium [2], with Salmonella typhimurium [4], in the series on Salmonella typhimurium [5], in the series on Salmonella typhimurium [8], in the series on Salmonella typhimurium [9] and in the series with Salmonella typhimurium [10] was “Non-toxic” each time. The “fold change (FC)” value with Salmonella typhimurium [3] is 1.34. For the same compound, the results for the half-life in [6], in series [7] and in series [11] were 20 min, 40 min and above 90 min, respectively. Further, the IC50 came to 0.4 µM on Cytochrome P450 1A2 and 4.9 µM on Cytochrome P450 3A4.
For `Clc1cccc(COc2cncc(N3CCNCC3)n2)c1`, the half-life at 1 µM in [1] was determined as 4 min. Also, the “fold change (FC)” value in the series on Salmonella typhimurium [12] and in the series with Salmonella typhimurium [13] was 3 each time. For the same compound, the half-life in [6] was 8 min; in series [7], 40 min; in [11] it was above 90 min. For the same compound, on Cytochrome P450 3A4, the IC50 was above 50 µM.
